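Values below derive from 48-hour exposures of cells grown in 96-well plates, with endpoints linearly interpolated between the two concentrations bracketing the appropriate inhibition level. Here, GI50 denotes the concentration required for 50% inhibition of growth.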 Active and inactive are the calls of the source. Rule as the data show it: active = GI50 up to about 1.1 µM and inactive = higher.
Tests used:
Test in all cases: DTP human tumour cell line panel, 48 h
786-0 = test system: 786-0
A498 = test system: A498
A549 = test system: A549
ACHN = test system: ACHN
BT-549 = test system: BT-549
CAKI-1 = test system: CAKI-1
DU-145 = test system: DU-145
EKVX = test system: EKVX
HCC 2998 = test system: HCC 2998
HCT-116 = test system: HCT-116
HCT-15 = test system: HCT-15
HL-60 = test system: HL-60
HOP-62 = test system: HOP-62
HOP-92 = test system: HOP-92
HT-29 = test system: HT-29
Hs-578T = test system: Hs-578T
IGROV-1 = test system: IGROV-1
K562 = test system: K562
KM12 = test system: KM12
LOX IMVI = test system: LOX IMVI
M14 = test system: M14
MCF7 = test system: MCF7
MDA-MB-231 = test system: MDA-MB-231
MDA-MB-435 = test system: MDA-MB-435
MDA-N = test system: MDA-N
MOLT-4 = test system: MOLT-4
NCI-H226 = test system: NCI-H226
NCI-H23 = test system: NCI-H23
NCI-H460 = test system: NCI-H460
NCI-H522 = test system: NCI-H522
NCI/ADR-RES = test system: NCI/ADR-RES
OVCAR-3 = test system: OVCAR-3
OVCAR-4 = test system: OVCAR-4
OVCAR-5 = test system: OVCAR-5
OVCAR-8 = test system: OVCAR-8
PC-3 = test system: PC-3
RPMI-8226 = test system: RPMI-8226
RXF 393 = test system: RXF 393
SF-268 = test system: SF-268
SF-295 = test system: SF-295
SF-539 = test system: SF-539
SK-MEL-28 = test system: SK-MEL-28
SK-MEL-2 = test system: SK-MEL-2
SK-MEL-5 = test system: SK-MEL-5
SNB-75 = test system: SNB-75
SR = test system: SR
SW-620 = test system: SW-620
T47D = test system: T47D
TK-10 = test system: TK-10
U-251 = test system: U-251
UACC-257 = test system: UACC-257
UO-31 = test system: UO-31
CCRF-CEM = test system: CCRF-CEM
COLO 205 = test system: COLO 205
Malme-3M = test system: Malme-3M
SK-OV-3 = test system: SK-OV-3
SN12C = test system: SN12C
SNB-19 = test system: SNB-19
UACC-62 = test system: UACC-62

CC1=NN(c2cccc(Cl)c2)C2(C1=Cc1cccs1)C(Cl)C(=O)N2c1nc2ccccc2s1 (configuration not stated)
GI50 (786-0): 13.8 µM (inactive)
GI50 (A498): 21.8 µM (inactive)
GI50 (A549): 21.9 µM (inactive)
GI50 (ACHN): 20.8 µM (inactive)
GI50 (BT-549): 25.2 µM (inactive)
GI50 (CAKI-1): 23.5 µM (inactive)
GI50 (DU-145): 33.8 µM (inactive)
GI50 (EKVX): 19.5 µM (inactive)
GI50 (HCC 2998): 17 µM (inactive)
GI50 (HCT-116): 18.4 µM (inactive)
GI50 (HCT-15): 20.6 µM
GI50 (HL-60): 25.6 µM (inactive)
GI50 (HOP-62): 27.6 µM (inactive)
GI50 (HOP-92): 21.2 µM (inactive)
GI50 (HT-29): 21.6 µM (inactive)
GI50 (Hs-578T): 27.4 µM (inactive)
GI50 (IGROV-1): 28.6 µM (inactive)
GI50 (K562): 25.7 µM (inactive)
GI50 (KM12): 28.7 µM (inactive)
GI50 (LOX IMVI): 19.6 µM (inactive)
GI50 (M14): 34.8 µM (inactive)
GI50 (MCF7): 23.2 µM (inactive)
GI50 (MDA-MB-231): 19.7 µM (inactive)
GI50 (MDA-MB-435): 30.4 µM (inactive)
GI50 (MDA-N): 22.1 µM (inactive)
GI50 (MOLT-4): 22.3 µM (inactive)
GI50 (NCI-H226): 24.3 µM (inactive)
GI50 (NCI-H23): 21.3 µM (inactive)
GI50 (NCI-H460): 20 µM (inactive)
GI50 (NCI-H522): 18.5 µM (inactive)
GI50 (NCI/ADR-RES): 21.9 µM (inactive)
GI50 (OVCAR-3): 17.7 µM (inactive)
GI50 (OVCAR-4): 28.9 µM (inactive)
GI50 (OVCAR-5): 18.2 µM (inactive)
GI50 (OVCAR-8): 20.4 µM (inactive)
GI50 (PC-3): 20.9 µM (inactive)
GI50 (RPMI-8226): 17.9 µM (inactive)
GI50 (RXF 393): 21.1 µM (inactive)
GI50 (SF-268): 21.5 µM (inactive)
GI50 (SF-295): 19.6 µM (inactive)
GI50 (SF-539): 15.2 µM (inactive)
GI50 (SK-MEL-28): 39.4 µM (inactive)
GI50 (SK-MEL-2): 17.9 µM (inactive)
GI50 (SK-MEL-5): 17.4 µM (inactive)
GI50 (SNB-75): 34.8 µM (inactive)
GI50 (SR): 18.5 µM (inactive)
GI50 (SW-620): 38.4 µM (inactive)
GI50 (T47D): 28.6 µM (inactive)
GI50 (TK-10): 28.6 µM (inactive)
GI50 (U-251): 15.1 µM (inactive)
GI50 (UACC-257): 23.2 µM (inactive)
GI50 (UO-31): 23.9 µM (inactive)

COC1/C=C/C(C)C(O)CC(O)/C=C/C(C)C(C(C)C(OC)C(C)CCC(=O)C(C)C(C/C=C/N(C)C=O)OC)OC(=O)/C=C/C=C(\C)CC(OC)CC2=CC(=O)O[C@@H](C(C)C(OC)C1)[C@H]2O (some centres not stated)
GI50 (786-0): < 0.005 µM (active)
GI50 (A498): < 0.005 µM (active)
GI50 (A549): 0.00507 µM (active)
GI50 (ACHN): < 0.005 µM (active)
GI50 (BT-549): 0.0311 µM (active)
GI50 (CAKI-1): < 0.005 µM (active)
GI50 (CCRF-CEM): 0.00687 µM (active)
GI50 (COLO 205): 0.00513 µM (active)
GI50 (DU-145): 0.0221 µM (active)
GI50 (EKVX): 0.0298 µM (active)
GI50 (HCC 2998): < 0.005 µM (active)
GI50 (HCT-116): < 0.005 µM (active)
GI50 (HCT-15): < 0.005 µM
GI50 (HL-60): < 0.005 µM (active)
GI50 (HOP-62): 0.00515 µM (active)
GI50 (HOP-92): 0.00612 µM (active)
GI50 (HT-29): < 0.005 µM (active)
GI50 (Hs-578T): 0.00879 µM (active)
GI50 (IGROV-1): 0.0113 µM (active)
GI50 (KM12): < 0.005 µM (active)
GI50 (LOX IMVI): < 0.005 µM (active)
GI50 (M14): < 0.005 µM (active)
GI50 (MCF7): 0.00522 µM (active)
GI50 (MDA-MB-231): < 0.005 µM (active)
GI50 (MDA-MB-435): 0.0105 µM (active)
GI50 (MDA-N): < 0.005 µM (active)
GI50 (MOLT-4): 0.0163 µM (active)
GI50 (Malme-3M): < 0.005 µM (active)
GI50 (NCI-H226): < 0.005 µM (active)
GI50 (NCI-H23): 0.011 µM (active)
GI50 (NCI-H460): < 0.005 µM (active)
GI50 (NCI-H522): < 0.005 µM (active)
GI50 (NCI/ADR-RES): 0.00656 µM (active)
GI50 (OVCAR-3): < 0.005 µM (active)
GI50 (OVCAR-4): 0.0267 µM (active)
GI50 (OVCAR-5): 0.0103 µM (active)
GI50 (OVCAR-8): < 0.005 µM (active)
GI50 (PC-3): < 0.005 µM (active)
GI50 (RPMI-8226): 0.00783 µM (active)
GI50 (RXF 393): < 0.005 µM (active)
GI50 (SF-268): 0.0233 µM (active)
GI50 (SF-295): < 0.005 µM (active)
GI50 (SF-539): < 0.005 µM (active)
GI50 (SK-MEL-28): 0.00588 µM (active)
GI50 (SK-MEL-5): < 0.005 µM (active)
GI50 (SK-OV-3): < 0.005 µM (active)
GI50 (SN12C): < 0.005 µM (active)
GI50 (SNB-19): 0.0168 µM (active)
GI50 (SNB-75): < 0.005 µM (active)
GI50 (SR): 0.00736 µM (active)
GI50 (SW-620): < 0.005 µM (active)
GI50 (T47D): 0.0219 µM (active)
GI50 (TK-10): 0.00542 µM (active)
GI50 (U-251): < 0.005 µM (active)
GI50 (UACC-257): 0.0103 µM (active)
GI50 (UACC-62): 0.00665 µM (active)
GI50 (UO-31): 0.00769 µM (active)

O=C(O)c1ccc([N+](=O)[O-])c2cc3cnccc3nc12
GI50 (A498): 70 µM (inactive)
GI50 (BT-549): 19.1 µM (inactive)
GI50 (CAKI-1): > 10 µM (inactive)
GI50 (CCRF-CEM): 2.31 µM (inactive)
GI50 (COLO 205): 21.5 µM (inactive)
GI50 (DU-145): 33 µM (inactive)
GI50 (HCC 2998): 22.3 µM (inactive)
GI50 (HCT-116): 18.4 µM (inactive)
GI50 (HCT-15): 20.1 µM
GI50 (HL-60): > 100 µM (inactive)
GI50 (HOP-62): 31.6 µM (inactive)
GI50 (HOP-92): 30.1 µM (inactive)
GI50 (HT-29): 22.6 µM (inactive)
GI50 (Hs-578T): 35 µM (inactive)
GI50 (IGROV-1): 34.7 µM (inactive)
GI50 (K562): 5.78 µM (inactive)
GI50 (KM12): 22.4 µM (inactive)
GI50 (M14): 17.8 µM (inactive)
GI50 (MCF7): 19.3 µM (inactive)
GI50 (MDA-MB-231): 19.4 µM (inactive)
GI50 (MDA-MB-435): 26.9 µM (inactive)
GI50 (MDA-N): 20.6 µM (inactive)
GI50 (MOLT-4): 3.91 µM (inactive)
GI50 (Malme-3M): 15.2 µM (inactive)
GI50 (NCI-H226): 30.3 µM (inactive)
GI50 (NCI-H23): 24.6 µM (inactive)
GI50 (NCI-H460): 38.2 µM (inactive)
GI50 (NCI-H522): 13.4 µM (inactive)
GI50 (NCI/ADR-RES): 25.9 µM (inactive)
GI50 (OVCAR-3): 21.2 µM (inactive)
GI50 (OVCAR-5): 33.7 µM (inactive)
GI50 (OVCAR-8): 22.4 µM (inactive)
GI50 (PC-3): 15.5 µM (inactive)
GI50 (RPMI-8226): 39.7 µM (inactive)
GI50 (RXF 393): 27.1 µM (inactive)
GI50 (SF-295): 43.5 µM (inactive)
GI50 (SK-MEL-28): 18.6 µM (inactive)
GI50 (SK-MEL-2): 17.9 µM (inactive)
GI50 (SK-MEL-5): 19.1 µM (inactive)
GI50 (SK-OV-3): 56.9 µM (inactive)
GI50 (SN12C): 16.3 µM (inactive)
GI50 (SNB-19): > 10 µM (inactive)
GI50 (SNB-75): 19.3 µM (inactive)
GI50 (SR): 43.2 µM (inactive)
GI50 (T47D): 18.6 µM (inactive)
GI50 (U-251): 19.9 µM (inactive)
GI50 (UACC-62): 12.4 µM (inactive)
GI50 (UO-31): 23.3 µM (inactive)
